Measured values published in patent publication US20060293317A1, “Use of non-steroidal progesterone receptor modulators” (priority 2005, published 2006).
pIC50: −log10 of the molar value.

Molecular target: T1, PR-B progesterone receptor (Homo sapiens, UniProt P06401)
T1 sequence (P06401 1-933): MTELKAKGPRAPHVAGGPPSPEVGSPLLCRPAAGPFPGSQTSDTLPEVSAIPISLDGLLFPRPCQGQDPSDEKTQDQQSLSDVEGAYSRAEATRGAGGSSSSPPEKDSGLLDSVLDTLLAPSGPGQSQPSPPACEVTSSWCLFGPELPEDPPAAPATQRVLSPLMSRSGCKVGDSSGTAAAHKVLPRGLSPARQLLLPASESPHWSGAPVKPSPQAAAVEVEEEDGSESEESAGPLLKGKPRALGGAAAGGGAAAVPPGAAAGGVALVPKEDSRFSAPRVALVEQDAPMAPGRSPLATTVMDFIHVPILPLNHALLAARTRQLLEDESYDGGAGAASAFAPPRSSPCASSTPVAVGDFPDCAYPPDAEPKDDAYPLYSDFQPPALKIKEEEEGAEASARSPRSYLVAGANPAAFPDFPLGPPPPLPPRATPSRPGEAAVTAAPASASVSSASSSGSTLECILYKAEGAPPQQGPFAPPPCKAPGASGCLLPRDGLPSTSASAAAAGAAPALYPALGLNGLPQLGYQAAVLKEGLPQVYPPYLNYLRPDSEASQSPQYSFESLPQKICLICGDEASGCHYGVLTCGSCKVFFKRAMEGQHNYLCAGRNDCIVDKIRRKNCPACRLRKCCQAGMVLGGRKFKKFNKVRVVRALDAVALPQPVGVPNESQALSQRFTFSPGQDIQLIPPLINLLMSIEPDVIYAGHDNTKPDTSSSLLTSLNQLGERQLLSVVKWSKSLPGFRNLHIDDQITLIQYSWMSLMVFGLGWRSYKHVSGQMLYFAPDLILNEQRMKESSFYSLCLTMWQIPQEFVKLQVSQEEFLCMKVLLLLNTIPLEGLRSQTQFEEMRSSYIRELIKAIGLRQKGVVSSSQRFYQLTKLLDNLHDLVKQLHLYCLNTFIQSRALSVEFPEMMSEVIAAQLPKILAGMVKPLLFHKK
Assay: Antagonism at the PR-B progesterone receptor (transactivation assay)
Assay type: cell-based
Description: Antagonism at the PR-B Progesterone Receptor
The transactivation assay is carried out as described in WO 02/054064.

## Cc1noc(=O)c2ccc(NC(=O)C(O)(Cc3ccccc3)CC(C)(C)c3ccccc3)cc12 (centres unmarked) [compound 88]
Transactivation assay as in WO 02/054064
  Antagonistic activity Efficacy: 100%
Transactivation assay as in WO 02/054064, read-out: Antagonistic activity IC50
  pIC50: 9.52
